Data from patent US10406146B2, “Heterocyclic compound” (TAKEDA PHARMACEUTICAL COMPANY LIMITED, priority 2015, dated 2019).

How the values were obtained:
Format in all cases: biochemical
HDAC9 enzyme = target: T1, HDAC9 enzyme (Homo sapiens, UniProt Q9UKV0); assay: HDAC9 enzyme inhibitory assay (HDAC-Glo class IIa); conditions: wells without enzyme = 100% inhibition; for inhibition at 1 µM: read-out: HDAC9 inhibitory rate (%) (1 μM)
T1 construct: transducing full length HDAC9 gene into Sf-9 insect cells; made in house; host or cells: Sf-9 insect cells
T1 sequence (Q9UKV0 whole entry, species assumed): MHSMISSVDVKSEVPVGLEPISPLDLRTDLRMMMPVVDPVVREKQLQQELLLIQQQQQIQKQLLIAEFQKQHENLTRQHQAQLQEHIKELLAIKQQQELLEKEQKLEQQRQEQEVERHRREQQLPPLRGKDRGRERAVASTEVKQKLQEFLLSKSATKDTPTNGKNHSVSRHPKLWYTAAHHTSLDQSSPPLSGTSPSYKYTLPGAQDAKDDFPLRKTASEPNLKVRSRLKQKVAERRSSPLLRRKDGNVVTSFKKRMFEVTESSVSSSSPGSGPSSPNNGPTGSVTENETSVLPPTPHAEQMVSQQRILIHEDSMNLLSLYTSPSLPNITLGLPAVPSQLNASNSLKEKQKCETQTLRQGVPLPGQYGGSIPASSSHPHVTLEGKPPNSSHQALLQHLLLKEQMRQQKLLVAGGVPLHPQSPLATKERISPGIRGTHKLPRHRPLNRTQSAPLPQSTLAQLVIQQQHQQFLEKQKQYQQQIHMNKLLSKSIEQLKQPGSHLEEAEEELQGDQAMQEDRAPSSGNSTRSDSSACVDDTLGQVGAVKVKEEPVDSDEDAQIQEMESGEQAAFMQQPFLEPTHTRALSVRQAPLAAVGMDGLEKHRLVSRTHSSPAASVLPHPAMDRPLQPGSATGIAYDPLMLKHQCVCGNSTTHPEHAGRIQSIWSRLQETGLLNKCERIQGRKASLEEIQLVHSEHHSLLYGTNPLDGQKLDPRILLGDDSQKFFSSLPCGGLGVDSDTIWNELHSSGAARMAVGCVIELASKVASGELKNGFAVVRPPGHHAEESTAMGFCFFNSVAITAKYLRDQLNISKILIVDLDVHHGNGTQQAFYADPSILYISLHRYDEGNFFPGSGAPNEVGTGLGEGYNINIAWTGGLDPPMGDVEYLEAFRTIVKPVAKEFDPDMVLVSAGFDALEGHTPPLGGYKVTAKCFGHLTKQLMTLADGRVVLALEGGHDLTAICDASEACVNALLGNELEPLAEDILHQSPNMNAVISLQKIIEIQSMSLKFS
Summary of the method: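 Full-length human HDAC9 from Sf-9 cells, Ni-NTA purified, preincubated with compound for 60 min at room temperature in Tris-HCl pH 7.5 buffer (MgCl2, KCl, NaCl, glutathione, Tween-20). HDAC-Glo class IIa substrate-developer added; luminescence read after 20 min, with no-enzyme wells defining 100% inhibition.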

HDAC6 enzyme = target: T2, HDAC6 enzyme (Homo sapiens, UniProt Q9UBN7); assay: HDAC6 enzyme inhibitory assay (HDAC-Glo I/II Assay kit); conditions: wells without enzyme = 100% inhibition; for inhibition at 1 µM: read-out: HDAC6 inhibitory rate (%) (1 μM)
T2 construct: transducing full length HDAC1 and HDAC6 genes into Sf-9 insect cells; GST; purchased SignalChem; host or cells: Sf-9 insect cells
T2 sequence (Q9UBN7 1-1215): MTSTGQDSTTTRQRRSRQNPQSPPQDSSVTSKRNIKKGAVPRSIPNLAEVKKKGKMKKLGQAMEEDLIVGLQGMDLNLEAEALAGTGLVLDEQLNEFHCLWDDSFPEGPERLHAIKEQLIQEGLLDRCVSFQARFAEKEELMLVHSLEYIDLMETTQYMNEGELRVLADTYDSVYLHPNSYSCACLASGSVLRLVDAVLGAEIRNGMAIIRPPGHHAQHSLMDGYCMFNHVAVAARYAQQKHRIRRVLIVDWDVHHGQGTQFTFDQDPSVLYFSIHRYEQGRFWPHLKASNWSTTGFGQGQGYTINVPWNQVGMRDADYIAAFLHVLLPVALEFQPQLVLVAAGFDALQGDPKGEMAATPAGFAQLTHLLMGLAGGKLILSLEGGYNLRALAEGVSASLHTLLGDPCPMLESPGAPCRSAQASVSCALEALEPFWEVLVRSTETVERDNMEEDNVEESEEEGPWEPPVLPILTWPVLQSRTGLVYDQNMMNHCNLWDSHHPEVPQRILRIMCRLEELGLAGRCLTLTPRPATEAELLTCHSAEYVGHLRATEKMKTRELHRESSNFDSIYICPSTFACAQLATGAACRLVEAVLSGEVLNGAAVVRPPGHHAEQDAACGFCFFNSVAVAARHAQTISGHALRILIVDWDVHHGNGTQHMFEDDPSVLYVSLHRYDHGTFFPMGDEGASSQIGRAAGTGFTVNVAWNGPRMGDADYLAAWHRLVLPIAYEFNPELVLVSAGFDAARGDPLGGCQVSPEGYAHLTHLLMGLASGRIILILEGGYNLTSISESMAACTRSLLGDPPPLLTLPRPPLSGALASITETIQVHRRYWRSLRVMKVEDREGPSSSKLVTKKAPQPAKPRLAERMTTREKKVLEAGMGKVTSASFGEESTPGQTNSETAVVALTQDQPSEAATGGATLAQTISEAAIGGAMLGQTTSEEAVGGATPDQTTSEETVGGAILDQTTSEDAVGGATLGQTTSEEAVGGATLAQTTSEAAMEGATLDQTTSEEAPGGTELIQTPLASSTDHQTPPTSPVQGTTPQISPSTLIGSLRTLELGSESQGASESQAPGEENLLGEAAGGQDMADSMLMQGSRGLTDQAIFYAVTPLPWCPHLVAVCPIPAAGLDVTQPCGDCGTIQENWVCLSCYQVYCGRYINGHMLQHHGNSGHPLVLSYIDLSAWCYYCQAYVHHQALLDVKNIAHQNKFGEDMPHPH
Summary of the method: (§1)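 Luminescent HDAC-Glo I/II read-out was taken 20 min after adding substrate-developer, at room temperature. Before this, compound and enzyme were held together for 60 min in 24 mM Tris-HCl pH 7.5 with 0.6 mM glutathione and 0.01% Tween-20. The enzyme was full-length HDAC1 or HDAC6 from Sf-9 cells, GST-purified. Wells without enzyme defined 100% inhibition.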

HDAC1 enzyme = target: T3, HDAC1 enzyme (Homo sapiens, UniProt Q13547); assay: HDAC1 enzyme inhibitory assay (HDAC-Glo I/II Assay kit); conditions: wells without enzyme = 100% inhibition; for inhibition at 1 µM: read-out: HDAC1 inhibitory rate (%) (1 μM)
T3 construct: transducing full length HDAC1 and HDAC6 genes into Sf-9 insect cells; GST; purchased SignalChem; host or cells: Sf-9 insect cells
T3 sequence (Q13547 whole entry): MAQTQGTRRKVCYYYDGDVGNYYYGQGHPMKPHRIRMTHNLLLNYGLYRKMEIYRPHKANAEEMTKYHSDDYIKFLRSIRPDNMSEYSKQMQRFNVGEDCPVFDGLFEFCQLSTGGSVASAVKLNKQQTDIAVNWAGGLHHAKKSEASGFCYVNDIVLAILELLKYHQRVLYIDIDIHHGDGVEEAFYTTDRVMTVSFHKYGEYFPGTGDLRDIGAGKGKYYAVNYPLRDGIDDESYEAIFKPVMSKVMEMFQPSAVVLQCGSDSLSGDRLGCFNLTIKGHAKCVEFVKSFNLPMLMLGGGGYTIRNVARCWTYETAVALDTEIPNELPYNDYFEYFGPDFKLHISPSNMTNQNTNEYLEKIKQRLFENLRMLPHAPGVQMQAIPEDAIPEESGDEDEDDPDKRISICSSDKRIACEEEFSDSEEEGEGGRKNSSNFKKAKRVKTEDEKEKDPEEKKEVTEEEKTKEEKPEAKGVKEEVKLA
Summary of the method: as §1

Row | inhibition at 1 µM (HDAC9 enzyme) | inhibition at 1 µM (HDAC6 enzyme) | inhibition at 1 µM (HDAC1 enzyme) | SMILES | HDAC9 inhibitory rate (%) (1 μM) (HDAC9 enzyme) | HDAC6 inhibitory rate (%) (1 μM) (HDAC6 enzyme) | HDAC1 inhibitory rate (%) (1 μM) (HDAC1 enzyme)
1 | 89% | 7% | 68% | O=C(CCc1ccccc1)NCC1CCCCN1C(=O)Nc1ccc(-c2noc(C(F)(F)F)n2)cc1 (stereo not drawn) [Example 47, 2-(((3-phenylpropanoyl)amino)methyl)-N-(4-(5-(trifluoromethyl)-1,2,4-oxadiazol-3-yl)phenyl)piperidine-1-carboxamide] |  |  | 
2 | 98% | 8% | 62% | Cn1nccc1C(=O)NCC1COCCN1C(=O)Nc1ccc(-c2noc(C(F)(F)F)n2)cc1 (stereo not drawn) [Example 61, 3-((((1-methyl-1H-pyrazol-5-yl)carbonyl)amino)methyl)-N-(4-(5-(trifluoromethyl)-1,2,4-oxadiazol-3-yl)phenyl)morpholine-4-carboxamide] |  |  | 
3 | 72% | 2% | 15% | N#Cc1ccccc1C(=O)NCC1CCCCN1C(=O)Nc1ccc(-c2noc(C(F)(F)F)n2)cc1 (stereo not drawn) [Example 19, 2-(((2-cyanobenzoyl)amino)methyl)-N-(4-(5-(trifluoromethyl)-1,2,4-oxadiazol-3-yl)phenyl)piperidine-1-carboxamide] |  |  | 
4 |  |  |  | CC(C)(C)OC(=O)NCC1CCCCN1C(=O)Nc1ccc(-c2noc(C(F)(F)F)n2)cc1 (stereo not drawn) [Example 3, tert-butyl ((1-((4-(5-(trifluoromethyl)-1,2,4-oxadiazol-3-yl)phenyl)carbamoyl)piperidin-2-yl)methyl) carbamate] | 87% | 5% | 51%
5 | 99% | 11% | 70% | Cn1nccc1C(=O)NC[C@@H]1COCCN1C(=O)Nc1ccc(-c2noc(C(F)(F)F)n2)cc1 [Example 63, (3R)-3-((((1-methyl-1H-pyrazol-5-yl)carbonyl)amino)methyl)-N-(4-(5-(trifluoromethyl)-1,2,4-oxadiazol-3-yl)phenyl)morpholine-4-carboxamide] |  |  | 
6 | 84% | 4% | 28% | O=C(NCC1CCCCN1C(=O)Nc1ccc(-c2noc(C(F)(F)F)n2)cc1)c1ccccn1 (stereo not drawn) [Example 34, N-((1-((4-(5-(trifluoromethyl)-1,2,4-oxadiazol-3-yl)phenyl)carbamoyl)piperidin-2-yl)methyl)pyridine-2-carboxamide] |  |  | 
7 | 88% | 1% | 1% | CN(C)c1ccc(C(=O)NCC2CCCCN2C(=O)Nc2ccc(-c3noc(C(F)(F)F)n3)cc2)cc1 (stereo not drawn) [Example 29, 2-(((4-(dimethylamino)benzoyl)amino)methyl)-N-(4-(5-(trifluoromethyl)-1,2,4-oxadiazol-3-yl)phenyl)piperidine-1-carboxamide] |  |  | 
8 | 92% | 6% | 53% | Cn1nccc1C(=O)NC[C@H]1COCCN1C(=O)Nc1ccc(-c2noc(C(F)(F)F)n2)cc1 [Example 62, (3S)-3-((((1-methyl-1H-pyrazol-5-yl)carbonyl)amino)methyl)-N-(4-(5-(trifluoromethyl)-1,2,4-oxadiazol-3-yl)phenyl)morpholine-4-carboxamide] |  |  | 
9 | 98% | 6% | 62% | O=C(NCC1COCCN1C(=O)Nc1ccc(-c2noc(C(F)(F)F)n2)cc1)c1ccccc1 (stereo not drawn) [Example 1, 3-((benzoylamino)methyl)-N-(4-(5-(trifluoromethyl)-1,2,4-oxadiazol-3-yl)phenyl)morpholine-4-carboxamide] |  |  | 
10 |  |  |  | O=C(NCC1CCCCN1C(=O)Nc1ccc(-c2noc(C(F)(F)F)n2)cc1)c1ccc(Cl)cc1Cl (stereo not drawn) [Example 31] | 38% | −1% | −12%
11 | 94% | 15% | 85% | O=C(NCC1COCCN1C(=O)Nc1ccc(-c2noc(C(F)(F)F)n2)cn1)c1ccccc1 (stereo not drawn) [Example 64, 3-((benzoylamino)methyl)-N-(5-(5-(trifluoromethyl)-1,2,4-oxadiazol-3-yl)pyridin-2-yl)morpholine-4-carboxamide] |  |  | 
12 | 70% | 1% | 4% | O=C(NCC1CCCCN1C(=O)Nc1ccc(-c2noc(C(F)(F)F)n2)cc1)c1cccc(Cl)c1Cl (stereo not drawn) [Example 30, 2-(((2,3-dichlorobenzoyl)amino)methyl)-N-(4-(5-(trifluoromethyl)-1,2,4-oxadiazol-3-yl)phenyl)piperidine-1-carboxamide] |  |  | 
13 | 80% | 1% | 4% | O=C(NCC1CCCCN1C(=O)Nc1ccc(-c2noc(C(F)(F)F)n2)cc1)c1cccc(C(F)(F)F)c1 (stereo not drawn) [Example 17, 2-(((3-(trifluoromethyl)benzoyl)amino)methyl)-N-(4-(5-(trifluoromethyl)-1,2,4-oxadiazol-3-yl)phenyl)piperidine-1-carboxamide] |  |  | 
14 | 40% | -1% | -12% | O=C(NCC1CCCCN1C(=O)Nc1ccc(-c2noc(C(F)(F)F)n2)cc1)c1ccc(-c2ccccc2)cc1 (stereo not drawn) [Example 15, 2-(((biphenyl-4-ylcarbonyl)amino)methyl)-N-(4-(5-(trifluoromethyl)-1,2,4-oxadiazol-3-yl)phenyl)piperidine-1-carboxamide] |  |  | 
15 | 74% | 7% | 57% | O=C(NCC1CCCCN1C(=O)Nc1ccc(-c2noc(C(F)(F)F)n2)cc1)C1CCc2ccccc2O1 (stereo not drawn) [Example 43, 2-(((3,4-dihydro-2H-chromen-2-ylcarbonyl)amino)methyl)-N-(4-(5-(trifluoromethyl)-1,2,4-oxadiazol-3-yl)phenyl)piperidine-1-carboxamide] |  |  | 
16 | 93% | 3% | 37% | O=C(NCC1CCCCN1C(=O)Nc1ccc(-c2noc(C(F)(F)F)n2)cc1)c1ccc(O)cc1 (stereo not drawn) [Example 27, 2-(((4-hydroxybenzoyl)amino)methyl)-N-(4-(5-(trifluoromethyl)-1,2,4-oxadiazol-3-yl)phenyl)piperidine-1-carboxamide] |  |  | 
17 | 95% | 2% | 12% | COc1ccc(C(=O)NCC2CCCCN2C(=O)Nc2ccc(-c3noc(C(F)(F)F)n3)cc2)cc1 (stereo not drawn) [Example 25, 2-(((4-methoxybenzoyl)amino)methyl)-N-(4-(5-(trifluoromethyl)-1,2,4-oxadiazol-3-yl)phenyl)piperidine-1-carboxamide] |  |  | 
18 | 51% | 5% | -8% | O=C(NCC1CCCCN1C(=O)Nc1ccc(-c2noc(C(F)(F)F)n2)cc1)c1cccc(-c2ccccc2)c1 (stereo not drawn) [Example 14, 2-(((biphenyl-3-ylcarbonyl)amino)methyl)-N-(4-(5-(trifluoromethyl)-1,2,4-oxadiazol-3-yl)phenyl)piperidine-1-carboxamide] |  |  | 
19 | 96% | 4% | 58% | O=C(NCC1CCCCN1C(=O)Nc1ccc(-c2noc(C(F)(F)F)n2)cc1)c1cccnc1 (stereo not drawn) [Example 35, N-((1-((4-(5-(trifluoromethyl)-1,2,4-oxadiazol-3-yl)phenyl)carbamoyl)piperidin-2-yl)methyl)nicotinamide] |  |  | 
